Biological target: Full length KDM2B (Homo sapiens (Human), UniProt Q8NHM5)
Experiment: KDM2B TR-FRET assay for determining inhibitor IC50
Type: biochemical
Conditions: TR-FRET (HTRF), biotin-H3K36me2 peptide substrate, 2-OG 0.3 μM or 6 μM
From the text: KDM2B TR-FRET Assay for Determining Inhibitor IC50
The KDM2B TR-FRET Assay described above represents an additional embodiment of the invention.

Full length KDM2B, sequence (Q8NHM5 whole entry): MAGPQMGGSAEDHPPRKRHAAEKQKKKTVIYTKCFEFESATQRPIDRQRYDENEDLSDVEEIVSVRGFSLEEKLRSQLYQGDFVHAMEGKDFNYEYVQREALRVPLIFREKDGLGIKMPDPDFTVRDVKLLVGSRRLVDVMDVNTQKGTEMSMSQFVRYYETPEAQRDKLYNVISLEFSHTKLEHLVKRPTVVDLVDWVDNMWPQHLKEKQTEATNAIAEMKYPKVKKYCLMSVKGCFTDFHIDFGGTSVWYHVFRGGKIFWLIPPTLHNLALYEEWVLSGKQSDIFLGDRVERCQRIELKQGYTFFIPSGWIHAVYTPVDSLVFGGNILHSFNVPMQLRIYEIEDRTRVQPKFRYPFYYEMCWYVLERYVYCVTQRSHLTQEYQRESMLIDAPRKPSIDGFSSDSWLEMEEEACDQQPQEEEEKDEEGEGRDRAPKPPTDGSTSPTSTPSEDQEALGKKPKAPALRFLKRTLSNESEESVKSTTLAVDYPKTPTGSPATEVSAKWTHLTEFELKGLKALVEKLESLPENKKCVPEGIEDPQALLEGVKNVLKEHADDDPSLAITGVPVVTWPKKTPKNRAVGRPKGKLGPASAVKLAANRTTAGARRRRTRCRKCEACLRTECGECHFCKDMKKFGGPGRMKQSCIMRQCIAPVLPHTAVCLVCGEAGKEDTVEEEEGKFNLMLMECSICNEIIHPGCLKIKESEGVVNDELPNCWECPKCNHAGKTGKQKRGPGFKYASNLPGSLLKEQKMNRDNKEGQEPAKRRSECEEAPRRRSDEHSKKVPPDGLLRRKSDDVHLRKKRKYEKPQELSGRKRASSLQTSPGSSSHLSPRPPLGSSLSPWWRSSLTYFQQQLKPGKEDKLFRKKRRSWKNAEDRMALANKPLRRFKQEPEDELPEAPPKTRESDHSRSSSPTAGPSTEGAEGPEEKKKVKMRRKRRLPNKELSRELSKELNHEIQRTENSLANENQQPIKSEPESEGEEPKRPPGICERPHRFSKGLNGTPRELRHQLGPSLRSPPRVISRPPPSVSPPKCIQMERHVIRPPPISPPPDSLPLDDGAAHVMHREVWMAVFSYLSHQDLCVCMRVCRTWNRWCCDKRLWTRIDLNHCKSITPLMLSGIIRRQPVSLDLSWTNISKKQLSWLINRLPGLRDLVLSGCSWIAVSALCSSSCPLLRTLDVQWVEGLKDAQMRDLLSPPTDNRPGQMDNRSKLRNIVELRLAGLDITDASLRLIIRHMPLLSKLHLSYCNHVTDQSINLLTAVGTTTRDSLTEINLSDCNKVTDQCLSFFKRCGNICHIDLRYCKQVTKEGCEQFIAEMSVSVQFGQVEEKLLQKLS

SMILES | IC50 [µM]
CCCN1CCCC(C(=O)c2cc(C(C)O)c3ccccc3c2)C1 (stereo not drawn) [Example 68, [4-(1-hydroxyethyl)-2-naphthyl]-(1-propyl-3-piperidyl)methanone] | 0.0762
COc1ccc2cc(C(=O)C3CCCN(CC4CCC4)C3)ccc2c1 (stereo not drawn) [Example 69, [1-(cyclobutylmethyl)-3-piperidyl]-(6-methoxy-2-naphthyl)methanone] | 0.15
CCCN1CCCC(C(=O)c2ccc3c(C)c(C#N)ccc3c2)C1 (stereo not drawn) [Example 70, 1-methyl-6-(1-propylpiperidine-3-carbonyl)-2-naphthonitrile] | 0.0918
Cc1c(C#N)ccc2cc(C(=O)C3CCCN(CC4CC4)C3)ccc12 (stereo not drawn) [Example 71, 6-(1-(cyclopropylmethyl)piperidine-3-carbonyl)-1-methyl-2-naphthonitrile] | 0.132
Cc1c(C#N)ccc2cc(C(=O)C3CCCN(C4CCC4)C3)ccc12 (stereo not drawn) [Example 72, 6-(1-cyclobutylpiperidine-3-carbonyl)-1-methyl-2-naphthonitrile] | 0.0875
Cc1c(C#N)ccc2cc(C(=O)C3CCCN(C4CCCC4)C3)ccc12 (stereo not drawn) [Example 73, 6-(1-cyclopentylpiperidine-3-carbonyl)-1-methyl-2-naphthonitrile] | 0.327
CCN1CCCC(C(=O)c2ccc3cc(OC)ccc3c2)C1 (stereo not drawn) [Example 74, (1-ethyl-3-piperidyl)-(6-methoxy-2-naphthyl)methanone] | 1.15
COc1ccc2cc(C(=O)C3CCCN(C4CCC4)C3)ccc2c1 (stereo not drawn) [Example 76, (1-cyclobutyl-3-piperidyl)-(6-methoxy-2-naphthyl)methanone] | 0.619
COc1ccc2cc(C(=O)C3CCCN(CC4CC4)C3)ccc2c1 (stereo not drawn) [Example 77, [1-(cyclopropylmethyl)-3-piperidyl]-(6-methoxy-2-naphthyl)methanone] | 0.208
COCCN1CCCC(C(=O)c2ccc3cc(OC)ccc3c2)C1 (stereo not drawn) [Example 78, [1-(2-methoxyethyl)-3-piperidyl]-(6-methoxy-2-naphthyl)methanone] | 2.4
COc1ccc2cc(C(=O)C3CCCN(CCF)C3)ccc2c1 (stereo not drawn) [Example 79, [1-(2-fluoroethyl)-3-piperidyl]-(6-methoxy-2-naphthyl)methanone] | 1.8
COc1ccc2cc(C(=O)C3CCCN(C(C)C)C3)ccc2c1 (stereo not drawn) [Example 81, (1-isopropyl-3-piperidyl)-(6-methoxy-2-naphthyl)methanone] | 6.5
COc1ccc2cc(C(=O)C3CCCN(CCC#N)C3)ccc2c1 (stereo not drawn) [Example 84, 3-[3-(6-methoxynaphthalene-2-carbonyl)-1-piperidyl]propanenitrile] | 0.709
CCCN1CCCC(C(=O)c2cccc(N(C)C)c2)C1 (stereo not drawn) [Example 90, [3-(dimethylamino)phenyl]-(1-propyl-3-piperidyl)methanone] | 1.6
CCCN1CCCC(C(=O)c2ccc(Cl)cc2)C1 (stereo not drawn) [Example 91, (4-chlorophenyl)-(1-propyl-3-piperidyl)methanone] | 1.6
CCCN1CCCC(C(=O)c2cccc(Cl)c2)C1 (stereo not drawn) [Example 92, (3-chlorophenyl)-(1-propyl-3-piperidyl)methanone] | 0.723
CCCN1CCCC(C(=O)c2ccc3c(cnn3C)c2)C1 (stereo not drawn) [Example 94, (1-methylindazol-5-yl)-(1-propyl-3-piperidyl)methanone] | 0.122
CCCN1CCCC(C(=O)c2cccc(OCc3ccccc3)c2)C1 (stereo not drawn) [Example 95, (3-benzyloxyphenyl)-(1-propyl-3-piperidyl)methanone] | 0.823
CCCN1CCCC(C(=O)c2ccc(OC)cc2)C1 (stereo not drawn) [Example 97, (4-methoxyphenyl)-(1-propyl-3-piperidyl)methanone] | 0.93
CCCN1CCCC(C(=O)c2cccc(OC)c2)C1 (stereo not drawn) [Example 98, (3-methoxyphenyl)-(1-propyl-3-piperidyl)methanone] | 1.6
CCCN1CCCC(C(=O)c2ccccc2OC)C1 (stereo not drawn) [Example 99, (2-methoxyphenyl)-(1-propyl-3-piperidyl)methanone] | 5.5
